{"source": "patent US20050075398A1", "about": "“Neuroprotectin D1 protects against cellular apoptosis, stroke damage, alzheimer's disease and retinal diseases” (priority 2003, published 2005)", "key": {"STAT-1-DNA binding": {"system": "STAT-1-DNA binding", "experiment": "EMSA of STAT-1 in hippocampus after MCA-O", "format": "in vivo, mouse", "details": "1 h MCA-O, 2 h reperfusion, NPD1 0.16 μg/ml infused 3 h", "procedure": "Electrophoretic mobility-shift assay (EMSA) of human AP1, HIF-1α, NF-κBp50/p65, and STAT-1α. Nuclear protein extracts (NPXTs) were prepared from one to three 3.5 cm-diameter wells of HN cells and quantitated. NPXTs (5 μg) derived from HN cells were incubated with[γ-^32P]-ATP (˜3000 Ci/mmol)-end-labeled AP1, HIF-1α, NF-κκBp50/p65, or STAT-1α consensus and mutant oligonucleotides in 5-μl volumes, reacted for 30 min on ice, analyzed on 5% or 10% acrylamide/90 mM Tris-borate pH 8.4, 1 mM EDTA (TBE) gels, dried onto 2-mm Whatman filter paper at 80° C. for 2 h, and phosphorimaged using a Typhoon Variable Mode Imager (Amersham Pharmacia Biotech, Piscataway, N.J. ).\nFIGS. 7A, 7B, and 7C show mouse hippocampus after 1 h MCA-O was followed by 2 h reperfusion, where either vehicle, DHA, or 10,17S-docosatriene (NPD1) (0.16 μg/ml) was infused into the third ventricle for 3 h at 0.25 μl/h. […] NF-κB was increased over two fold in the ipsilateral hippocampus after MCA-O, and the infusion of either DHA or 10,17S-docosatriene (NPD1) inhibited ischemia-reperfusion-induced NF-κB activation by 28% and 48%, respectively (FIG. 7A)."}, "CEX-1 gene expression": {"system": "CEX-1 gene expression", "experiment": "HGU133 GeneChip DNA array in HN cells: CEX-1", "format": "cell-based, human", "details": "Aβ42 25 μM, DHA 50 nM or NPD1 50 nM, 18 h, nsc = no significant change"}, "B94 gene expression": {"system": "B94 gene expression", "experiment": "HGU133 GeneChip DNA array in HN cells: B94", "format": "cell-based, human", "details": "Aβ42 25 μM, DHA 50 nM or NPD1 50 nM, 18 h, nsc = no significant change", "from_the_text": "RNA Isolation and Spectral Quality. Brain tissues were rapidly processed, and total RNA was extracted using Trizol reagent (Invitrogen, Carlsbad, Calif.). Total RNA quality and abundance were profiled using RNA Nano LabChips (Caliper Technologies, Mountainview, Calif.; Agilent Technologies, Palo Alto, Calif.).\nProbe Synthesis and GeneChip Hybridization. Biotinylated antisense cRNAs were synthesized from cDNA using the Superscript Choice System (Invitrogen) and Enzo Biorray High Yield RNA Transcript Labeling kits according to the manufacturer's protocols (Affymetrix) and as described in Colangelo, V., Schurr, J., Ball, M. J., Pelaez, R. P., Bazan, N. G., Lukiw, W. J. (2002) J. Neurosci. Res., 70: 462-473; and Lukiw, W. J. (2004) Neurochem. Research, 29: 1287-1297. Probes were hybridized against HU133Av2 GeneChip DNA arrays that interrogate approximately 33,000 full-length […] genes and expressed sequence tag (EST) clusters. […]\nGeneChip Data and Statistical Analysis. […] Volcano plots were plotted representing total gene expression patterns as a function of fold-change as compared to expression patterns of age-matched controls as plotted against p, as calculated by an analysis of variance (ANOVA). […] Statistical significance was analyzed using a two-way factorial analysis of variance (p, ANOVA; Statistical Analysis System; SAS Institute, Cary, N.C. )."}, "TNFα gene expression": {"system": "TNFα gene expression", "experiment": "HGU133 GeneChip DNA array in HN cells: TNFα", "format": "cell-based, human", "details": "Aβ42 25 μM, DHA 50 nM or NPD1 50 nM, 18 h, nsc = no significant change"}, "ARPE-19 cells": {"system": "ARPE-19 cells", "experiment": "DNA fragmentation by differential sedimentation after 3H-thymidine labeling", "format": "cell-based, human", "details": "50 nM; TNF-α 10 ng and H2O2 800 μM for 6-8 h", "procedure": "DNA fragmentation assay: Cells (80% confluent) growing in DMEM (10% FBS) in 6-well plates were labeled with 1 μCi ^3H-thymidine per well for 24 h at 37° C. The day-old medium was replaced to remove the unincorporated ^3H-thymidine. Cells were then serum-starved for 1 h and treated with TNFα plus H2O2 for 6-8 h. Cells were harvested, centrifuged at 200×g for 10 min at 4° C. An aliquot of the supernatant was precipitated with 25% TCA, and radioactivity was measured. This represents the amount of ^3H-thymidine released during the oxidative stress induced by TNFα plus H2O2 The cell pellet was solubilized in lysis buffer (0.2% Triton X-100 in 10 mM Tris/EDTA). The intact DNA and fragmented DNA were separated by centrifugation at 13,000×g for 10 min at 4° C. Fragmented DNA was precipitated from the supernatant with 25% TCA. The pellets were resuspended in 1% SDS and radioactivity was measured. This represents the intact DNA in the cells. The amount of DNA fragmentation is expressed as percentage of fragmented DNA over the control, as described in Kim, H. Y., Akbar, M., Lau, A. & Edsall, L. (2000) J. Biol. Chem. 275:35215-35223.\nThese observations indicate that oxidative stress triggered DNA fragmentation and RPE apoptosis, and that the increase in NPD1 inhibited RPE cell death. […] DNA fragmentation was evaluated after TCA precipitation and expressed as percentage over intact DNA. […]"}, "caspase-3": {"system": "caspase-3", "experiment": "Caspase-3 cleavage in ARPE-19 cells stably transfected with lentivirus DEVD construct", "details": "50 nM", "text": "The values shown are the average of triplicate samples in three independent experiments."}}, "data": [{"smiles": "CC/C=C\\C[C@H](O)\\C=C/C=C/C=C/[C@H](O)C/C=C\\C/C=C\\CCC(=O)O", "note": "[NPD1, 10,17S-docosatriene]", "values": [{"measurement": "effect on STAT-1-DNA binding", "setting": "STAT-1-DNA binding", "value": "small effect"}, {"measurement": "CEX-1 gene expression, fold change over untreated controls", "setting": "CEX-1 gene expression", "value": "nsc"}, {"measurement": "B94 gene expression, fold change over untreated controls", "setting": "B94 gene expression", "value": "nsc"}, {"measurement": "TNFα gene expression, fold change over untreated controls", "setting": "TNFα gene expression", "value": "nsc"}, {"measurement": "effect on DNA fragmentation (3H-thymidine)", "setting": "ARPE-19 cells", "value": "inhibited"}, {"measurement": "inhibition of caspase-3 activation", "setting": "caspase-3; 400 μM H2O2 with TNFα", "value": 60, "unit": "%"}, {"measurement": "inhibition of caspase-3 activation", "setting": "caspase-3; 800 μM H2O2 with TNFα", "value": 50, "unit": "%"}]}]}
